Assay [1] deals with T1, NanoLuc–SIRT2 fusion protein in HEK293T cells (Homo sapiens, UniProt Q8IXJ6).
T1 construct: HEK293T cells stably expressing the NanoLuc-SIRT250-364-fusion target protein were seeded into the coated plates; expressed in transfected cells; host or cells: HEK293T (stably expressing)
T1 sequence (Q8IXJ6 50-364 limits assumed): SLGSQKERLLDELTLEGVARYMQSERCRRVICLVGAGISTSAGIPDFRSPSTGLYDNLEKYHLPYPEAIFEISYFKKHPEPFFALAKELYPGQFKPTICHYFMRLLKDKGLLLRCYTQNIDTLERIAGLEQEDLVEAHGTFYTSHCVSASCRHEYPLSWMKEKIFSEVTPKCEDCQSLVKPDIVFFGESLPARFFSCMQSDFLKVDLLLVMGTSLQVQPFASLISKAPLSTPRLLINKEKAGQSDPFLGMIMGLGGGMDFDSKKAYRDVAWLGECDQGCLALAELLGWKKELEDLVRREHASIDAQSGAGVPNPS
The assay can be described thus: Kinetic NanoBRET washout assay (target residence time). Format: cell-based. Particulars: 25 µM (5 × EC50), 2 h preincubation, 2 h washout.
Description: NanoBRET washout assay for determination of target residence time
A NanoBRET-based washout assay was used to assess the target residence time of inhibitors for SIRT2 in living cells. White, flat-bottom 96-well plates (PerkinElmer) were pre-coated with poly-L-lysine (Sigma-Aldrich) to enhance cell adherence. Briefly, each well was treated with poly-L-lysine solution for 5 min at room temperature, followed by removal of the coating solution and air-drying before seeding.
Cells were treated with the indicated inhibitor
After incubation, the inhibitor-containing medium was aspirated, and a washout procedure was performed to remove unbound inhibitor. Each well was washed twice by sequential addition and removal of 100 µL Opti-MEM (Thermo Fisher Scientific). Following the final wash, 90 µL Opti-MEM was added per well, followed by 100 µL of 2× Nano-Glo® substrate solution (Promega) and 10 µL of 20× SIRT2-Tracer solution.
BRET measurements were recorded kinetically using a Tecan Spark® plate reader equipped with donor (460 nm)
The BRET ratio was monitored over time to track the re-binding of the

The target of assay [2] is T2, NanoLuc–SIRT2 fusion protein in HEK293T cells (Homo sapiens, UniProt Q8IXJ6).
T2 construct: transfected HEK293T cells expressing the NanoLuc-tagged SIRT250-356 fusion protein were used instead of transient; expressed in transfected cells; host or cells: HEK293T (stably transfected)
T2 sequence (Q8IXJ6 50-356 limits assumed): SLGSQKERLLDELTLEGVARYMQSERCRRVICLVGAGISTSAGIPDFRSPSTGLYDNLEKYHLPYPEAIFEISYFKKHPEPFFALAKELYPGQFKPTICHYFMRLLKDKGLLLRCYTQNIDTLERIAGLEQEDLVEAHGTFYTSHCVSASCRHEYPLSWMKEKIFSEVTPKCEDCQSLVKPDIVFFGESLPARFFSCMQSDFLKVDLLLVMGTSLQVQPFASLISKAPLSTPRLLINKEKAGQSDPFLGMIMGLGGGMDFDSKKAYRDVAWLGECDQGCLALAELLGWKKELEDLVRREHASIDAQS
On the set-up: method as in PMID 35441145. Particulars: read-out: NanoBRET EC50; cited from earlier work.

“Also recorded” adds a separate entry of the source.

As to `O=C(NCc1cccnc1)c1ccc2c(c1)C1C3CCC(C3)C1C(c1ccccc1)N2` (centres unmarked) [AEM2, reference compound], in assay [1], the inhibition after washout entry is listed as “completely lost activity; also recorded: fades with washout over 2 h”. Moreover, the EC50 in assay [2] was 5.2 ± 0.2 µM.
